We go through one compound from patent publication US20260269287A1, “ALL-NONAQUEOUS MEMBRANE-FREE FLOW BATTERIES” (University of Cincinnati, priority 2023, published 2026).

≈ marks a conversion by molar mass, not a printed value. Entries after “also recorded” stand apart in the source; their conditions may differ.

Common to all, as to format: physicochemical
Data set [1] can be described thus: RDE linear sweep voltammetry of C18-PTZ in 0.1 M FEC/LiTFSI. Conditions: 1 mM in 0.1 M FEC/LiTFSI. As for the experimental part:
To investigate the electrochemical kinetics of C18-PTZ redox molecules, linear sweep voltammetry (LSV) was conducted using the rotating disk electrode (RDE) technique. The LSV curves of C18-PTZ were measured in electrolyte solutions containing 1.0 mM C18-PTZ in 0.1 M FEC/LiTFSI solution, and the results are presented in FIG. 68(a).
Calculation of diffusion coefficient and electron transfer rate. Linear sweep voltammetry (LSV) studies were carried out using a Pine modulated speed rotator with Biologic potentiostats. Rotating disk electrode (RDE, diameter: 5 mm), Pt wire electrode and Ag/Ag^+ electrode were used as the working, counter and reference electrodes, respectively. Before testing, the samples were purged with argon for 10 min. LSV dates were collected at different rotation rates ranging from 100 to 1600 rpm. The diffusion coefficient (Do) of electroactive materials were calculated from the Levich plot using Equation 1.
The kinetic rate constant is calculated by Equation 2.
The LSV investigations were conducted using a Pine modulated speed rotator paired with Biologic potentiostats. […] The diffusion coefficient (D) of electroactive materials was calculated from the Lévich plot using Equation 1. The kinetic rate constant is calculated by Equation 2.

Data set [2] can be described thus: Solubility of catholyte compounds in the three supporting electrolytes of the triphasic system. The source says:
(§1) Selection of the anode and cathode materials. Achieving a high capacity for RFBs requires the selection of redox-active materials with high potential. In this study, Li metal was selected as the anode because of its low electrochemical potential (−3.04 V vs. a standard hydrogen electrode), high energy density, and theoretical capacity (~3,860 mAh/g). Graphite felt (GF) was selected as the cathode owing to its chemical inertness in nonaqueous electrolytes, high electrical conductivity, highly porous structure, and high specific surface area. […] The solubility properties of several redox-active catholyte compounds, including derivatives of phenothiazine, cyclopropenium, 2,2,6,6-tetramethylpiperidinyloxy (TEMPO), anthraquinone (AQ), and ferrocene, were evaluated as the three supporting electrolytes in the triphasic system (FIG. 88). […] The system was evaluated for the potential crossover of 0.5 M C18-PTZ dissolved in the FEC phase. […]
(§2) Selection of the anode and cathode materials. […] The solubility properties of several redox-active catholyte compounds, including derivatives of phenothiazine, cyclopropenium, 2,2,6,6-tetramethylpiperidinyloxy (TEMPO), anthraquinone (AQ), and ferrocene, were evaluated as the three supporting electrolytes in the triphasic system (FIG. 85). […] The system was evaluated for the potential crossover of 0.5 M C18-PTZ dissolved in the FEC phase. […]

A short description of data set [3]: Solubility test of C18-PTZ in FEC/LiTFSI. Conditions: in FEC/LiTFSI (1.2 M). As for the experimental part:
Solubility test. […] The solution was gradually added to a vial containing known amounts of C18-PTZ. Once a clear solution was just obtained, the volume of the electrolyte was determined by an analytical pipette. The solubility of organic compounds was calculated from the ratio of the molar amount to electrolyte volume. These processes are repeated twice, and the averaged values are presented.
Solubility Test. […] The solution was incrementally added to a vial containing known quantities of C18-PTZ. The addition continued until a clear solution was achieved, at which point the volume of the electrolyte was measured using an analytical pipette. Subsequently, the solubility of the organic compounds was calculated by finding the ratio of the molar amount of C18-PTZ to the volume of the electrolyte. This entire process was repeated twice to ensure accuracy, and the averaged values of the solubility were reported as the final result.

Data set [4] is described as follows: Crossover study of C18-PTZ in the Design-I triphasic system under static conditions (UV-visible, CV). The note with it: 0.5 M in FEC phase, 10-day period.
From the text: as §1, §2

The nature of data set [5]: Cyclic voltammetry of C18-PTZ in 0.1 M FEC/LiTFSI. Here is the method:
Electrochemical characterization. CV studies were carried out to estimate the electrochemical properties of redox material (C18-PTZ) as well as the crossover of redox-active cathode material before and after long-term battery cycling. For CV measurements, 5 mM of C18-PTZ solution were prepared in 0.1 M FEC/LiTFSI electrolyte. A 3-mm glassy carbon was used as the working electrode and was polished with 50 nm Al2O3 before measurements. Platinum wire (0.5 mm) was used as the counter electrodes. A Ag/Ag^+ electrode was used as the reference electrode.
Electrochemical characterization. For the cyclic voltammetry (CV) measurements, C18-PTZ (5 mM) solutions were prepared in FEC/LiTFSI (0.1 M) electrolyte. A glassy carbon disk (CHI Instrument, 3 mm) was used as the working electrode and was polished with aqueous Al2O3(Pine Research Instrumentation, Inc., […]) before the measurements. A piece of Pt wire (Pine Research Instrumentation, Inc., thickness 0.5 mm, purity 99.99%) was used as the counter electrode while an Ag/Ag^+ (MTI Corp) electrode was used as the reference electrode. The CV measurements were performed using a Bio-Logic potentiostat. The charge/discharge performances were evaluated using Land and Bio-Logic potentiostats.

As usually defined, the solubility is how much of the substance goes into solution per volume. Lower therefore signals a poorly soluble substance. In the case of `CCCCCCCCCCCCCCCCCCN1c2ccccc2Sc2ccccc21` [C18-PTZ], in data set [1], the “kinetic rate constant (k0)” value is 0.00351 cm/s. Further, in data set [1] (Levich plot), the “diffusion coefficient D” value is 6.23×10^−6 cm^2/s. Also, the “solubility in TEGDME and NFTTS” value in data set [2] (anolyte and intermediate layers of triphasic system) was “poor solubility”. Besides, in data set [2] (catholyte solvent of triphasic system), the “solubility in FEC” value is “high solubility”. This compound also had a solubility in data set [3] of 0.5 M (≈ 226 mg/mL). The “crossover out of the FEC layer” value in data set [4] is “no significant crossover”. Moreover, the redox couple potential in data set [5] (5 mM in 0.1 M FEC/LiTFSI) is reported as 0.35 V vs. Ag/Ag^+. The “electrochemical stability on repeated CV cycling” value in data set [5] (FEC/LiTFSI (0.1 M), 50 mV/s, 500 cycles) is recorded as “excellent electrochemical stability; also recorded: high electrochemical stability”. In data set [5] (scan rate 50 mV/s), the peak potential separation amounted to 68 mV. In data set [5] (scan rate 50 mV/s, unit not given), the peak potential separations was ~ 68. For the same compound, the “ratio of cathodic peak current (ipc) and anodic peak current (ipa)” value in data set [5] (scan rates 50 to 250 mV/s) is listed as “approximately 1”.
